Patent publication US12486290B2, “Isoindolinone and indazole compounds for the degradation of EGFR” (C4 THERAPEUTICS, INC., priority 2019, dated 2025)

Tests used:
[1] = molecular target: T1, EGFR T790M/L858R (NCI-H1975 cells) (Homo sapiens, UniProt P00533, L858R/T790M); assay: EGFR (L858R) degradation analysis, Total EGFR (L858R) HTRF, NCI-H1975 cells; format: cell-based; conditions: 6 hours
T1 construct: NCI-H1975 (harboring EGFR heterozygous T790M/L858R mutations); host or cells: NCI-H1975
Source text: (§1) NCI-H1975 (harboring EGFR heterozygous T790M/L858R mutations) and NCI-H3255 (harboring EGFR heterozygous L858R mutation) were purchased from ATCC and NCI, respectively. NCI-H1975+CS (harboring EGFR heterozygous T/790M/L858R/C797S mutations) was generated using CRISPR technology to introduce the additional C797S mutation by Horizon Discovery. RPMI 1640 no-phenol red medium and fetal bovine serum (FBS) were purchased from Gibco (Grand Island, NY, USA). Cell culture flasks and 384-well microplates were acquired from VWR (Radnor, PA, USA). Total EGFR (L858R) HTRF assay kits were purchased from Cisbio (Bedford, MA, USA).
(§2) Degradation of EGFR protein containing L858R mutation was determined based on quantification of FRET signal using Total EGFR (L858R) HTRF assay kit. Test compounds were added to the 384-well plate from a top concentration of 10 μM with 11 points, half log titration in duplicates. NCI-H1975, NCI-H1975+CS or NCI-H3255 cells were added into 384-well plates at a cell density of 10000, 10000 or 1000 cells per well, respectively. The plates were kept at 37° C. with 5% CO2 for 6 hours. Cells treated in the absence of the test compound were the negative control. Positive control was set by wells containing all reagents but no cells. FRET signal was acquired on EnVision™ Multilabel Reader (PerkinElmer, Santa Clara, CA, USA).

[2] = molecular target: T2, EGFR L858R (NCI-H3255 cells) (Homo sapiens, UniProt P00533, L858R); assay: EGFR (L858R) degradation analysis, Total EGFR (L858R) HTRF, NCI-H3255 cells; format: cell-based; conditions: 6 hours
T2 construct: NCI-H3255 (harboring EGFR heterozygous L858R mutation); host or cells: NCI-H3255
Source text: as §1, §2

T2 sequence (P00533 25-1210 L858R): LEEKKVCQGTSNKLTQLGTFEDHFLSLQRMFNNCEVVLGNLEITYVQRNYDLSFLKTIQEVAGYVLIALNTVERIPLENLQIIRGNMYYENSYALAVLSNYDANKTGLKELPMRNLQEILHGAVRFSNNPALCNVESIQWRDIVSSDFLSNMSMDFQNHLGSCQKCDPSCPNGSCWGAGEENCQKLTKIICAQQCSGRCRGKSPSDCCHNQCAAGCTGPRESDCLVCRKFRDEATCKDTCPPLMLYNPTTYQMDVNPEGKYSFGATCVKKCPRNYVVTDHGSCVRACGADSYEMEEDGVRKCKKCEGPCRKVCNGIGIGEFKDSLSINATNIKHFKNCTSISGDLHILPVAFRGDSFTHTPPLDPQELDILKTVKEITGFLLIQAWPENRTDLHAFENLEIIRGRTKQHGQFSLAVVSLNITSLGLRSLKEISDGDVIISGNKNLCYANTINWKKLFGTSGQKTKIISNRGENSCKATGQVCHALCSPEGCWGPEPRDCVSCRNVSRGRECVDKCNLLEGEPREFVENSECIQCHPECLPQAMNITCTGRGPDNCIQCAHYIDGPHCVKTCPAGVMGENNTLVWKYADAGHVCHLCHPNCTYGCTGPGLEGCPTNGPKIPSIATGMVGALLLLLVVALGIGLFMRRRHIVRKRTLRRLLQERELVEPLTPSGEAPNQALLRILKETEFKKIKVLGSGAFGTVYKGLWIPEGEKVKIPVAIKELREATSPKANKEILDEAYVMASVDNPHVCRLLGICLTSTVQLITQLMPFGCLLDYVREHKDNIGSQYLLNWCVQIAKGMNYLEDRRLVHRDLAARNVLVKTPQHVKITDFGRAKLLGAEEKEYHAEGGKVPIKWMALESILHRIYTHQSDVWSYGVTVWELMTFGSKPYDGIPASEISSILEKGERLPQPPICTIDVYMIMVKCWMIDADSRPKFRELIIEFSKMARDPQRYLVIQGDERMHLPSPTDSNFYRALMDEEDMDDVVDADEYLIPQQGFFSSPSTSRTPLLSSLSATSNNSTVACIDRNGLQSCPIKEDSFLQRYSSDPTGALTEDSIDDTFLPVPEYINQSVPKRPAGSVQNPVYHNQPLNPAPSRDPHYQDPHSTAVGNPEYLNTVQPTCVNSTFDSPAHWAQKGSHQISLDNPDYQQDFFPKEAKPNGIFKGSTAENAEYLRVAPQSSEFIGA
T1 sequence (P00533 25-1210 T790M/L858R): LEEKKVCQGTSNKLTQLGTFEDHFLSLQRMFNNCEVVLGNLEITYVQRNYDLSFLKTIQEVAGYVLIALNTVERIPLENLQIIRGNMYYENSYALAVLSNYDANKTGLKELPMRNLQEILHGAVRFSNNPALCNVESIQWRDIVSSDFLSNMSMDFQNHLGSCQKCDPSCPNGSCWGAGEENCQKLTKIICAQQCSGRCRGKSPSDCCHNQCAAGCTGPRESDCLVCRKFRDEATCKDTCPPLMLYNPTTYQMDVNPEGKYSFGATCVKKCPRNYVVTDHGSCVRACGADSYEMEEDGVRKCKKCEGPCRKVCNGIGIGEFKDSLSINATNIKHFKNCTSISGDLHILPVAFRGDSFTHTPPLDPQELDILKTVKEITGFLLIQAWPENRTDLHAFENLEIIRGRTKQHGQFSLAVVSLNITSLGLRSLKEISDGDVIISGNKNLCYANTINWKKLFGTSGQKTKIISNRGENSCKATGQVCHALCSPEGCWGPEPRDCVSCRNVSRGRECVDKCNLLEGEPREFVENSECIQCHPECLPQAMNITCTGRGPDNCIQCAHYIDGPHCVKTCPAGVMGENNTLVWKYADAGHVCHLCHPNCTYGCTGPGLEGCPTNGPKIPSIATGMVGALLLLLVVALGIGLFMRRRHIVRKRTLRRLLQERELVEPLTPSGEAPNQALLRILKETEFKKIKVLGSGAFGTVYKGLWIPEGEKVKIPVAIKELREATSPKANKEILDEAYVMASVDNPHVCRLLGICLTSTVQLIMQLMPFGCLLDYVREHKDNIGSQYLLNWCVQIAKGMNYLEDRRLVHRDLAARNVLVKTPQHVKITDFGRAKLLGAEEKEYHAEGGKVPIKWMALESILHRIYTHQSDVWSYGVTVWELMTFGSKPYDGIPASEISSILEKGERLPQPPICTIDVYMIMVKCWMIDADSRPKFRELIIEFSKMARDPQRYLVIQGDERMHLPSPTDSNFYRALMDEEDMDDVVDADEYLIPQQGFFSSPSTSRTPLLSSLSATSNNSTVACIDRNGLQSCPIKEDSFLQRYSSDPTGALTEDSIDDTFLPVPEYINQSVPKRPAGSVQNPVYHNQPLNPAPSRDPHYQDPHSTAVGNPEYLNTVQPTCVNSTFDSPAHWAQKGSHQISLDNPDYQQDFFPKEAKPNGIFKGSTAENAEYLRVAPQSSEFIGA

Row | DC50 [1] [nM] | DC50 [2] [nM] | DC50 ([1]; class symbols) [nM] | SMILES
1 |  |  | 50 to 150 | O=C1CCC(Nc2cc(F)c(N3CCC(O)(CC(=O)N4CCC5(CC4)CN(c4ccc(-c6cc(F)c7c(c6)C(=O)N(C(C(=O)Nc6nccs6)c6ncn8c6CCC8)C7)cc4)C5)CC3)c(F)c2)C(=O)N1 (centres unmarked) [Compound 137, 2-(6,7-dihydro-5H-pyrrolo[1,2-c]imidazol-1-yl)-2-[6-[4-[7-[2-[1-[4-[[2,6-dioxo-3-piperidyl]amino]-2,6-difluoro-phenyl]-4-hydroxy-4-piperidyl]acetyl]-2,7-diazaspiro[3.5]nonan-2-yl]phenyl]-4-fluoro-1-oxo-isoindolin-2-yl]-N-thiazol-2-yl-acetamide]
2 |  |  | 50 to 150 | O=C1CCC(Nc2cc(F)c(N3CCC(O)(CC(=O)N4CC5(C4)CN(c4ccc(-c6cc(F)c7c(c6)C(=O)N(C(C(=O)Nc6nccs6)c6ncn8c6CCC8)C7)cc4)C5)CC3)c(Cl)c2)C(=O)N1 (centres unmarked) [Compound 145, 2-[6-[4-[2-[2-[1-[2-chloro-4-[[2,6-dioxo-3-piperidyl]amino]-6-fluoro-phenyl]-4-hydroxy-4-piperidyl]acetyl]-2,6-diazaspiro[3.3]heptan-6-yl]phenyl]-4-fluoro-1-oxo-isoindolin-2-yl]-2-(6,7-dihydro-5H-pyrrolo[1,2-c]imidazol-1-yl)-N-thiazol-2-yl-acetamide]
3 |  |  | 50 to 150 | O=C1CCC(c2ccc(N3CCC(O)(CC(=O)N4CC5(CCN(c6ccc(-c7cc(F)c8c(c7)C(=O)N(C(C(=O)Nc7nccs7)c7ncn9c7CCC9)C8)cc6)CC5)C4)CC3)c(F)c2)C(=O)N1 (centres unmarked) [Compound 159, 2-(6,7-dihydro-5H-pyrrolo[1,2-c]imidazol-1-yl)-2-[6-[4-[2-[2-[1-[4-(2,6-dioxo-3-piperidyl)-2-fluoro-phenyl]-4-hydroxy-4-piperidyl]acetyl]-2,7-diazaspiro[3.5]nonan-7-yl]phenyl]-4-fluoro-1-oxo-isoindolin-2-yl]-N-thiazol-2-yl-acetamide]
4 |  |  | 50 to 150 | O=C1CCC(c2ccc(N3CCC(O)(CC(=O)N4CCC5(CC4)CN(c4ccc(-c6cc(F)c7c(c6)C(=O)N(C(C(=O)Nc6nccs6)c6ncn8c6CCC8)C7)cc4)C5)CC3)c(F)c2)C(=O)N1 (centres unmarked) [Compound 160, 2-(6,7-dihydro-5H-pyrrolo[1,2-c]imidazol-1-yl)-2-[6-[4-[7-[2-[1-[4-(2,6-dioxo-3-piperidyl)-2-fluoro-phenyl]-4-hydroxy-4-piperidyl]acetyl]-2,7-diazaspiro[3.5]nonan-2-yl]phenyl]-4-fluoro-1-oxo-isoindolin-2-yl]-N-thiazol-2-yl-acetamide]

Continued, molecule first:

Row | SMILES | DC50 [1] [nM] | DC50 [2] [nM] | DC50 ([1]; class symbols) [nM]
5 | O=C1CC[C@H](Nc2ccc(C3CCN(CC(=O)N4CCC(NC(=O)c5ccc(C#Cc6cc(F)c7c(c6)C(=O)N(C(C(=O)Nc6nccs6)c6ncn8c6CCC8)C7)cn5)CC4)CC3)c(F)c2)C(=O)N1 (stereo partly drawn) [Compound 4, 5-[2-[2-[1-(6,7-dihydro-5H-pyrrolo[1,2-c]imidazol-1-yl)-2-oxo-2-(thiazol-2-ylamino)ethyl]-7-fluoro-3-oxo-isoindolin-5-yl]ethynyl]-N-[1-[2-[4-[4-[[(3S)-2,6-dioxo-3-piperidyl]amino]-2-fluoro-phenyl]-1-piperidyl]acetyl]-4-piperidyl]pyridine-2-carboxamide] | 10 | 9 | 
6 | O=C1CCC(Nc2ccc(C3CCN(C(=O)CN4CCN(c5ccc(-c6cc(F)c7c(c6)C(=O)N(C(C(=O)Nc6nccs6)c6ncn8c6CCC8)C7)cc5)CC4)CC3)cc2)C(=O)N1 (centres unmarked) [Compound 10, 2-(6,7-dihydro-5H-pyrrolo[1,2-c]imidazol-1-yl)-2-(6-(4-(4-(2-(4-(4-((2,6-dioxopiperidin-3-yl)amino)phenyl)piperidin-1-yl)-2-oxoethyl)piperazin-1-yl)phenyl)-4-fluoro-1-oxoisoindolin-2-yl)-N-(thiazol-2-yl)acetamide] | 21 | 19 | 
7 | O=C1CCC(Nc2ccc(C3CCN(CC(=O)N4CCN(c5ccc(-c6cc(F)c7c(c6)C(=O)N(C(C(=O)Nc6nccs6)c6ncn8c6CCC8)C7)cc5)CC4)CC3)nc2)C(=O)N1 (centres unmarked) [Compound 11, 2-(6,7-dihydro-5H-pyrrolo[1,2-c]imidazol-1-yl)-2-[6-[4-[4-[2-[4-[5-[(2,6-dioxo-3-piperidyl)amino]-2-pyridyl]-1-piperidyl]acetyl]piperazin-1-yl]phenyl]-4-fluoro-1-oxo-isoindolin-2-yl]-N-thiazol-2-yl-acetamide] | 20 | 21 | 
8 | O=C1CCC(Nc2ccc(C3CCN(CC(=O)N4CCN(c5ccc(-c6cc(F)c7c(c6)C(=O)N(C(C(=O)Nc6nccs6)c6ncn8c6CCC8)C7)cc5)CC4)CC3)c(F)c2)C(=O)N1 (centres unmarked) [Compound 12, 2-(6,7-dihydro-5H-pyrrolo[1,2-c]imidazol-1-yl)-2-[6-[4-[4-[2-[4-[4-[(2,6-dioxo-3-piperidyl)amino]-2-fluoro-phenyl]-1-piperidyl]acetyl]piperazin-1-yl]phenyl]-4-fluoro-1-oxo-isoindolin-2-yl]-N-thiazol-2-yl-acetamide] | 39 | 11 | 
9 | O=C1CC[C@H](Nc2ccc(C3CCN(CC(=O)N4CCC(c5ccc(-c6cc(F)c7c(c6)C(=O)N(C(C(=O)Nc6nccs6)c6ncn8c6CCC8)C7)cc5)CC4)CC3)cc2)C(=O)N1 (stereo partly drawn) [Compound 22, 2-(6,7-dihydro-5H-pyrrolo[1,2-c]imidazol-1-yl)-2-(6-(4-(1-(2-(4-(4-(((S)-2,6-dioxopiperidin-3-yl)amino)phenyl)piperidin-1-yl)acetyl)piperidin-4-yl)phenyl)-4-fluoro-1-oxoisoindolin-2-yl)-N-(thiazol-2-yl)acetamide] | 31 | 15 | 
10 | O=C1CCC(Nc2ccc(C3CCN(CC(=O)N4CCN(c5ccc(-c6cc(F)c7cn(C(C(=O)Nc8nccs8)c8ncn9c8CCC9)nc7c6)cn5)CC4)CC3)c(F)c2)C(=O)N1 (centres unmarked) [Compound 64, 2-(6,7-dihydro-5H-pyrrolo[1,2-c]imidazol-1-yl)-2-[6-[6-[4-[2-[4-[4-[(2,6-dioxo-3-piperidyl)amino]-2-fluoro-phenyl]-1-piperidyl]acetyl]piperazin-1-yl]-3-pyridyl]-4-fluoro-indazol-2-yl]-N-thiazol-2-yl-acetamide] | 137 |  | 
11 | O=C1CCC(Nc2ccc(C3CCN(CC(=O)N4CCN(c5ccc(-c6cc(F)c7cn(C(C(=O)Nc8nccs8)c8ncn9c8CCC9)nc7c6)cn5)CC4)CC3)cc2)C(=O)N1 (centres unmarked) [Compound 65, 2-(6,7-dihydro-5H-pyrrolo[1,2-c]imidazol-1-yl)-2-[6-[6-[4-[2-[4-[4-[(2,6-dioxo-3-piperidyl)amino]phenyl]-1-piperidyl]acetyl]piperazin-1-yl]-3-pyridyl]-4-fluoro-indazol-2-yl]-N-thiazol-2-yl-acetamide] | 36 |  | 
12 | O=C1CC[C@H](Nc2ccc(N3CCC(O)(C(=O)N4CC5(C4)CN(c4ccc(-c6cc(F)c7c(c6)C(=O)N(C(C(=O)Nc6nccs6)c6ncn8c6CCC8)C7)cc4)C5)CC3)c(F)c2)C(=O)N1 (some centres unmarked) [Compound 146, 2-(6,7-dihydro-5H-pyrrolo[1,2-c]imidazol-1-yl)-2-[6-[4-[2-[1-[4-[[2,6-dioxo-3-piperidyl]amino]-2-fluoro-phenyl]-4-hydroxy-piperidine-4-carbonyl]-2,6-diazaspiro[3.3]heptan-6-yl]phenyl]-4-fluoro-1-oxo-isoindolin-2-yl]-N-thiazol-2-yl-acetamide] |  |  | < 50
